Test results: patent US8536337B2, “Solid forms of methyl (7aS,2′S)-2-(2-chlorophenyl)-2-(2,4,5,6,7,7a-hexahydrothieno[3,2-c]-5-pyridin-2-one)acetate” (IPCA Laboratories Limited, priority 2012, dated 2013)
Where a name gives a salt, the structure may show the parent alone. Read-outs that look alike come from different tables or passages of the source.

Key:
[1] = Stability of the isolated isomer against conversion into mixture of isomers (keto-enol tautomerism); type: physicochemical; settings: normal conditions, even in solutions
Text: The present invention is realized by way of preferential stereoselective crystallization of one of the isomer {(7aS,2′S)-isomer} from a mixture of isomers with or without dynamic conversion of counter stereo-isomer {(7aR,2′S)-isomer} through enol form. 2-oxo-clopidogrel can exists in three isomeric forms, namely structures of formula II, Formula VI and Formula VII. […] Once the double bond in the ring flips between the tetrahydropyridine nucleus and the thiophene ring, it destroys the chiral centre at 7a position, especially during its formation, resulting in mixture of isomers. Therefore, to date, there are no reports available to exclusively isolate one of the isomer selectively. […] The compounds of the present invention are substantially free of other isomers for example, compound of Formula VI, and Formula VII, apart from isomer of Formula IIB. Substantially free herein means the levels of these compounds individually or cumulatively are less than 10%, preferably less than, 5%, more preferably less than 3%, still more preferably, less than 1.0%.

[2] = test system: ADP induced platelet aggregation; test: Measurement of platelet aggregation with ADP, ex vivo whole blood impedance aggregometry after oral dosing; type: in vivo, rat; settings: SD rats, blood 4 h after dosing, 10 μM ADP; for % aggregation: vehicle control = 100%
Method: Measurement of Platelet Aggregation with ADP
The activity on the aggregation of plates induced by ADP or collagen was determined ex-vivo.
The products as a suspension in 5% Gum Arabica (aq.) were administered by oral route to groups of six male rats of the SD strain, weighing 250-300 g. After 4 hours of the administration, 2 ml of blood is collected into the heparinized tubes by puncture of retro-orbital sinus. 0.5 ml of the anticoagulated blood is diluted with an equal volume of isotonic saline solution and incubated at 37° C. for 10 minutes. To the incubated whole blood, 10 μM ADP is added and the change in impedance (Ω), which reflects platelet aggregation, is recorded for 8 minutes with Chronolog Whole Blood Aggregometer (Model 592, Chrono-log Corp., USA). The percentage inhibition of platelet aggregation is calculated by the following formula considering the vehicle control reading as 100%:

[3] = test system: FeCl3 induced arterial thrombus formation (common carotid artery); test: FeCl3 induced Arterial Thrombosis Model; type: in vivo, rat; settings: SD rats, 30% FeCl3 1 hour post dosing
Method: 2. Anti-Thrombotic Activity
The antithrombotic activity has also been studied in FeCl3 induced Arterial Thrombosis Model according to standard procedures reported by William A. Schumacher et al., 2007 (Journal of Pharmacology and Experimental Therapeutics, 322 (I): 369-377) and Takao Tanaka et al. 2000 (European Journal of Pharmacology, 401: 413-418).
The products were dissolved in DMSO (1 mg/ml) and diluted in PEG/Water (Ratio: DMSO:PEG:Water=5:50:45), and were administered by the per oral mute to groups of 8 male rats of the SD strain, weighing 250-300 g after overnight fast. 1 hour post dosing, rats were anesthetized with Ketamine (100 mg/kg; i.p.), Xylazine (10 mg/kg; i.p) and placed on a heating pad. After aseptic preparation of the tracheal and scapular region of the rats, a midline incision of the tracheal area was made and a blunt dissection was performed to expose the common carotid artery. Approximately 2 cm of the common carotid artery was freed from the connective tissues, jugular veins, and vagus nerve and a ˜3 mm filter paper, briefly soaked in 30% FeCl3 solution, was placed around the artery for 10 min. The artery was isolated after 15 mins of the removal of filter paper and the rat was euthanized. Thrombus developed was scraped out from the extracted artery and kept for drying for 24 hours. The wet and dry weight of thrombus was recorded and expressed as mg weight of thrombus per kg body weight. % inhibition of the thrombus formation is calculated using the formula: […]

[4] = test system: recurrent ischemic events / major bleeding events; settings: cited from earlier work
[5] = cited from earlier work
[6] = test system: rat; settings: in rat; cited from earlier work
[7] = test system: ADP induced platelet aggregation; settings: cited from earlier work; for time until 50% inhibition of ADP induced platelet aggregation is reached: LTA, 5 μM ADP ex-vivo
[8] = 1.3 mg/kg p.o. (1.17 mg/kg base)
[9] = 2.2 mg/kg p.o. (1.98 mg/kg base)
[10] = patients at high risk of vascular events
[11] = combined with Aspirin therapy in patients with ACS

COC(=O)C(c1ccccc1Cl)N1CCC2SC(=O)C=C2C1 [(7aS,2′S)-2-oxoclopidogrel, Methyl (7aS,2′S)-2-(2-chlorophenyl)-2-(2,4,5,6,7,7a-hexahydrothieno[3,2-c]-5-pyridin-2-one)acetate]
stability against conversion into mixture of isomers [1]: stable and resistant to conversion into mixture

COC(=O)C(c1ccccc1Cl)N1CCC2SC(=O)C=C2C1 [(7aS,2'S)-2-oxoclopidogrel bisulphate, Methyl (7aS,2′S)-2-(2-chlorophenyl)-2-(2,4,5,6,7,7a-hexahydrothieno[3,2-c]-5-pyridin-2-one)acetate hydrogen sulfate]
% aggregation ([2]; 2.5 mg/kg p.o. (1.9 mg/kg base)): 14.57%
% aggregation ([2]; 3.5 mg/kg p.o. (2.7 mg/kg base)): 9.14%
inhibition at 2.5 mg/kg ([2]; Rattus norvegicus, Platelet, po, 2.5 mg/kg p.o. (1.9 mg/kg base)): 85.4%
inhibition at 3.5 mg/kg ([2]; Rattus norvegicus, Platelet, po, 3.5 mg/kg p.o. (2.7 mg/kg base)): 90.9%
% Inhibition of Thrombus Formation (Mean ± SEM) [3, 8]: 76 ± 3.3%
Dry weight of Thrombus (mg/kg) (Mean ± SEM) [3, 8]: 0.98 ± 0.1 mg/kg

COC(=O)[C@H](c1ccccc1Cl)N1CCC2SC(=O)C=C2C1.Cl (stereo partly drawn) [(2'S)-2-oxoclopidogrel hydrochloride]
% inhibition [2, 9]: 48.04%
% aggregation [2, 9]: 51.96%

CC(=O)Oc1cc2c(s1)CCN(C(C(=O)C1CC1)c1ccccc1F)C2 (stereo not drawn) [Prasugrel hydrochloride]
% aggregation ([2]; 2.2 mg/kg p.o. (2 mg/kg base)): 18.93%
inhibition at 2.2 mg/kg ([2]; Rattus norvegicus, Platelet, po, 2.2 mg/kg p.o. (2 mg/kg base)): 81.1%

CC(=O)Oc1ccccc1C(=O)O [Aspirin]
Absolute risk increase (ARI), major bleeding events [4, 10]: about 0.5%
absolute risk reduction (ARR), recurrent ischemic events [4, 10]: about 2%
increase in the odds of major bleeding events [4, 10]: about 60%
reduction of the risk of recurrent ischemic events [4, 10]: 22%

COC(=O)[C@H](c1ccccc1Cl)N1CCc2sccc2C1 [Clopidogrel bisulphate]
% aggregation ([2]; 25 mg/kg p.o. (19.15 mg/kg base)): 22.85%
inhibition at 25 mg/kg ([2]; Rattus norvegicus, Platelet, po, 25 mg/kg p.o. (19.15 mg/kg base)): 77.2%
% Inhibition of Thrombus Formation (Mean ± SEM) ([3]; 4 mg/kg p.o. (3.06 mg/kg base)): 73 ± 5.3%
Dry weight of Thrombus (mg/kg) (Mean ± SEM) ([3]; 4 mg/kg p.o. (3.06 mg/kg base)): 1.10 ± 0.2 mg/kg

COC(=O)[C@H](c1ccccc1Cl)N1CCc2sccc2C1 [clopidogrel, (+)-(S)-methyl2-(2-chlorophenyl)-2-(6,7-dihydrothieno[3,2-c]pyridin-5(4H)-yl)acetate]
share converted to clopidogrel acid in vivo [5]: 90%
lethal dose [6]: about 5000 mg per kg
ARR, recurrent ischemic events [4, 11]: about 2.1%
further reduction of the risk of recurrent ischemic events [4, 11]: 20%
inhibition of ADP induced platelet aggregation ([7]; 900 mg, at 5 μM ADP): 60%
inhibition of platelet aggregation ([7]; 900 mg, induced by 20 μM of ADP (ex vivo)): less than 50%
time until 50% inhibition of ADP induced platelet aggregation is reached ([7]; dose 600 mg): 2 h
time until 50% inhibition of ADP induced platelet aggregation is reached ([7]; loading dose of 300 mg): 4 to 6 h
